In US12091426B2, “Bifunctional degraders of hematopoietic progenitor kinase and therapeutic uses thereof” (Nurix Therapeutics, Inc., priority 2021, dated 2024):

Target: T1, HPK1 (Homo sapiens, UniProt Q92918)
T1 construct: A HiBiT tag was introduced by CRISPR on the N terminus of HPK1 in Jurkat cells; host or cells: Jurkat cells (ATCC TIB-152), monoclonal line with CRISPR knock-in of HiBiT at the endogenous HPK1 locus
Experiment: HPK1 Cellular HiBit Degradation Assay
Type: cell-based
Conditions: HiBiT HPK1 Jurkat cells, 24 hrs; for DC50: concentration at which 50% of HPK1 was remaining, read-out: DC50 Category; for Dmax: Jurkat, maximum degradation vs DMSO vehicle control, read-out: Dmax Category
Method in brief: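 HPK1 levels are read by HiBiT luminescence after 24 h exposure of HiBiT-knock-in Jurkat cells to compound at 10 uM–0.1 nM final (11 points). Relative to DMSO (100%), DC50 is the concentration leaving 50% HPK1 from a variable-slope fit, and Dmax is 100 minus minimum remaining. Viability checked in-plate.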

T1 sequence (Q92918 whole entry): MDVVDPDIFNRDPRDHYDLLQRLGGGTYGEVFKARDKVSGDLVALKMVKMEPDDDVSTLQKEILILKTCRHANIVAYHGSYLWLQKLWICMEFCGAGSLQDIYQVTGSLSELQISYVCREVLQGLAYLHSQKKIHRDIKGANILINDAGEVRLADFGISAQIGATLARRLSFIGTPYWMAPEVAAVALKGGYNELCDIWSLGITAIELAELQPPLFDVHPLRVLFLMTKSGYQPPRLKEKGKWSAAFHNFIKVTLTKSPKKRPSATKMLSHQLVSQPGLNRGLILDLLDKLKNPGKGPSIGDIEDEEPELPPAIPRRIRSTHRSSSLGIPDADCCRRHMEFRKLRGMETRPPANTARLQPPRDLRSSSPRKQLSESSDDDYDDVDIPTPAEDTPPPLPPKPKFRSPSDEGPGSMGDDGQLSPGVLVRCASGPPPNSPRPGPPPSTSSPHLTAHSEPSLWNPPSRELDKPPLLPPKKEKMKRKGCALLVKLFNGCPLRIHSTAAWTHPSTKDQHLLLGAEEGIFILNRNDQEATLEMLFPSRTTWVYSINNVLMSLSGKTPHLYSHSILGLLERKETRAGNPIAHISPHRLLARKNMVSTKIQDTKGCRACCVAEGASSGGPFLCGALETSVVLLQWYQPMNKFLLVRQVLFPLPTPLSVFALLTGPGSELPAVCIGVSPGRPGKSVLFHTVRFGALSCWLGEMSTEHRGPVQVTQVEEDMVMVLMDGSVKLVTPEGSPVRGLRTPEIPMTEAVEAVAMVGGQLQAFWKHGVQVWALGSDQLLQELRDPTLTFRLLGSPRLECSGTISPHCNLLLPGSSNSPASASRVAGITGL

| SMILES | DC50 [µM] | Dmax [%] |
| --- | --- | --- |
| CC(C)n1cnc2cc(-c3ccc4c(c3)N([C@H]3C[C@@H](N5CCCCC5)C3)C(=O)C43CCN(C(=O)C4CCN(S(=O)(=O)C5CCN(c6ccc(C7CCC(=O)NC7=O)cn6)CC5)CC4)CC3)nc(NC3CC3)c21 (mixture of isomers) [Example 160, (3RS)-3-[6-(4-{[4-({6-[4-(cyclopropylamino)-3-(propan-2-yl)-3H-imidazo[4,5-c]pyridin-6-yl]-2-oxo-1-[(1S,3S)-3-(piperidin-1-yl)cyclobutyl]-1,2-dihydrospiro[indole-3,4′-piperidin]-1′-yl}carbonyl)piperidin-1-yl]sulfonyl}piperidin-1-yl)pyridin-3-yl]piperidine-2,6-dione] | < 0.1 | > 85 |
| CC(C)n1cnc2cc(-c3ccc4c(c3)N([C@H]3C[C@@H](N5CCCCC5)C3)C(=O)C43CCN(C(=O)CC4CCN(C(=O)C5CCN(c6ccc(C7CCC(=O)NC7=O)cn6)CC5)CC4)CC3)nc(NC3CC3)c21 (mixture of isomers) [Example 162, (3RS)-3-(6-{4-[4-(2-{6-[4-(cyclopropylamino)-3-(propan-2-yl)-3H-imidazo[4,5-c]pyridin-6-yl]-2-oxo-1-[(1S,3S)-3-(piperidin-1-yl)cyclobutyl]-1,2-dihydrospiro[indole-3,4′-piperidin]-1′-yl}-2-oxoethyl)piperidine-1-carbonyl]piperidin-1-yl}pyridin-3-yl)piperidine-2,6-dione] | < 0.1 | 70 to 85 |
| CC(C)n1cnc2cc(-c3ccc4c(c3)N([C@H]3C[C@@H](N5CCCCC5)C3)C(=O)C43CCN(C(=O)[C@]4(C)CCN(C(=O)C5CCN(c6ccc(C7CCC(=O)NC7=O)c(F)c6)CC5)C4)CC3)nc(NC3CC3)c21 (mixture of isomers) [Example 185, (3RS)-3-(4-{4-[(3R)-3-({6-[4-(cyclopropylamino)-3-(propan-2-yl)-3H-imidazo[4,5-c]pyridin-6-yl]-2-oxo-1-[(1S,3S)-3-(piperidin-1-yl)cyclobutyl]-1,2-dihydrospiro[indole-3,4′-piperidin]-1′-yl}carbonyl)-3-methylpyrrolidine-1-carbonyl]piperidin-1-yl}-2-fluorophenyl)piperidine-2,6-dione] | 0.1 to 0.5 | 70 to 85 |
| CC(C)n1cnc2cc(-c3ccc4c(c3)N([C@H]3C[C@@H](N5CCCCC5)C3)C(=O)C43CCN(C(=O)[C@]4(C)CCN(C(=O)C5CCN(c6ccc(C7CCC(=O)NC7=O)cn6)CC5)C4)CC3)nc(NC3CC3)c21 (mixture of isomers) [Example 186, (3RS)-3-(6-{4-[(3R)-3-({6-[4-(cyclopropylamino)-3-(propan-2-yl)-3H-imidazo[4,5-c]pyridin-6-yl]-2-oxo-1-[(1S,3S)-3-(piperidin-1-yl)cyclobutyl]-1,2-dihydrospiro[indole-3,4′-piperidin]-1′-yl}carbonyl)-3-methylpyrrolidine-1-carbonyl]piperidin-1-yl}pyridin-3-yl)piperidine-2,6-dione] | 0.1 to 0.5 | 70 to 85 |
| CC(C(=O)N1CCC2(CC1)C(=O)N([C@H]1C[C@@H](N3CCCCC3)C1)c1cc(-c3cc4ncn(C(C)C)c4c(NC4CC4)n3)ccc12)C1CCN(C(=O)C2CCN(c3ccc(C4CCC(=O)NC4=O)cn3)CC2)CC1 (mixture of isomers) [Example 187, (3RS)-3-(6-{4-[4-(1-{6-[4-(cyclopropylamino)-3-(propan-2-yl)-3H-imidazo[4,5-c]pyridin-6-yl]-2-oxo-1-[(1S,3S)-3-(piperidin-1-yl)cyclobutyl]-1,2-dihydrospiro[indole-3,4′-piperidin]-1′-yl}-1-oxopropan-2-yl)piperidine-1-carbonyl]piperidin-1-yl}pyridin-3-yl)piperidine-2,6-dione] | < 0.1 | 70 to 85 |
| CC(C)n1cnc2cc(-c3ccc4c(c3)N([C@H]3C[C@@H](N5CCCCC5)C3)C(=O)C43CCN(C(=O)C(C)(C)N4CCN(C(=O)C5CCN(c6ccc(C7CCC(=O)NC7=O)cn6)CC5)CC4)CC3)nc(NC3CC3)c21 (mixture of isomers) [Example 188, (3RS)-3-(6-{4-[4-(1-{6-[4-(cyclopropylamino)-3-isopropylimidazo[4,5-c]pyridin-6-yl]-2-oxo-1-[(1S,3S)-3-(piperidin-1-yl)cyclobutyl]spiro[indole-3,4′-piperidin]-1′-yl}-2-methyl-1-oxopropan-2-yl)piperazine-1-carbonyl]piperidin-1-yl}pyridin-3-yl)piperidine-2,6-dione] | < 0.1 | 70 to 85 |
| Cc1cc(N2CCC(C(=O)N3CCC(C)(C(=O)N4CCC5(CC4)C(=O)N([C@H]4C[C@@H](N6CCCCC6)C4)c4cc(-c6cc7ncn(C(C)C)c7c(NC7CC7)n6)ccc45)CC3)CC2)ncc1C1CCC(=O)NC1=O (mixture of isomers) [Example 189, (3RS)-3-(6-{4-[4-({6-[4-(cyclopropylamino)-3-isopropylimidazo[4,5-c]pyridin-6-yl]-2-oxo-1-[(1S,3S)-3-(piperidin-1-yl)cyclobutyl]spiro[indole-3,4′-piperidin]-1′-yl}carbonyl)-4-methylpiperidine-1-carbonyl]piperidin-1-yl}-4-Methylpyridin-3-yl)piperidine-2,6-dione] | < 0.1 | 70 to 85 |
| CC(C)n1cnc2cc(-c3ccc4c(c3)N([C@H]3C[C@@H](N5CCCCC5)C3)C(=O)C43CCN(C(=O)C4(C)CCN(C(=O)[C@H]5CC[C@H](Cn6cc7cc(C8CCC(=O)NC8=O)ccc7n6)CC5)CC4)CC3)nc(Nc3ccccc3F)c21 (mixture of isomers) [Example 190, (3RS)-3-(2-{[(1R,4R)-4-{4-[(6-{4-[(2-fluorophenyl)amino]-3-(propan-2-yl)-3H-imidazo[4,5-c]pyridin-6-yl}-2-oxo-1-[(1S,3S)-3-(piperidin-1-yl)cyclobutyl]-1,2-dihydrospiro[indole-3,4′-piperidin]-1′-yl)carbonyl]-4-methylpiperidine-1-carbonyl}cyclohexyl]methyl}-2H-indazol-5-yl)piperidine-2,6-dione] | < 0.1 | 50 to 70 |
| CC(C)n1cnc2cc(-c3ccc4c(c3)N([C@H]3C[C@@H](N5CCCCC5)C3)C(=O)C43CCN(C(=O)C4(C)CCN(C(=O)[C@H]5CC[C@H](Nc6ccc(C7CCC(=O)NC7=O)cc6)CC5)CC4)CC3)nc(NC3CC3)c21 (mixture of isomers) [Example 191, (3RS)-3-(4-{[(1R,4R)-4-[4-({6-[4-(cyclopropylamino)-3-(propan-2-yl)-3H-imidazo[4,5-c]pyridin-6-yl]-2-oxo-1-[(1S,3S)-3-(piperidin-1-yl)cyclobutyl]-1,2-dihydrospiro[indole-3,4′-piperidin]-1′-yl}carbonyl)-4-methylpiperidine-1-carbonyl]cyclohexyl]amino}phenyl)piperidine-2,6-dione] | < 0.1 | 70 to 85 |
| CC(C)n1cnc2cc(-c3ccc4c(c3)N([C@H]3C[C@@H](N5C6CCC5COC6)C3)C(=O)C43CCN(C(=O)C4(C)CCN(C(=O)[C@H]5CC[C@H](Oc6ccc(C7CCC(=O)NC7=O)cc6)CC5)CC4)CC3)nc(NC3CC3)c21 (mixture of isomers) [Example 193, (3RS)-3-(4-{[(1R,4R)-4-[4-({6-[4-(cyclopropylamino)-3-(propan-2-yl)-3H-imidazo[4,5-c]pyridin-6-yl]-2-oxo-1-[(1S,3S)-3-{3-oxa-8-Azabicyclo[3.2.1]octan-8-yl}cyclobutyl]-1,2-dihydrospiro[indole-3,4′-piperidin]-1′-yl}carbonyl)-4-methylpiperidine-1-carbonyl]cyclohexyl]oxy}phenyl)piperidine-2,6-dione] | 0.1 to 0.5 | 50 to 70 |
| CC(C)n1cnc2cc(-c3ccc4c(c3)N([C@H]3C[C@@H](N5CCCCC5)C3)C(=O)C43CCN(C(=O)C4(C)CCN(C(=O)[C@H]5CC[C@H](Oc6ncc(C7CCC(=O)NC7=O)cn6)CC5)CC4)CC3)nc(NC3CC3)c21 (mixture of isomers) [Example 194, (3RS)-3-(2-{[(1R,4R)-4-[4-({6-[4-(cyclopropylamino)-3-(propan-2-yl)-3H-imidazo[4,5-c]pyridin-6-yl]-2-oxo-1-[(1S,3S)-3-(piperidin-1-yl)cyclobutyl]-1,2-dihydrospiro[indole-3,4′-piperidin]-1′-yl}carbonyl)-4-methylpiperidine-1-carbonyl]cyclohexyl]oxy}pyrimidin-5-yl)piperidine-2,6-dione] | 0.1 to 0.5 | 70 to 85 |
| CC(C)n1cnc2cc(-c3ccc4c(c3)N([C@H]3C[C@@H](N5C6COCC5C6)C3)C(=O)C43CCN(C(=O)C4(C)CCN(C(=O)C5CCN(c6ccc(C7CCC(=O)NC7=O)cc6)CC5)CC4)CC3)nc(NC3CC3)c21 (mixture of isomers) [Example 195, (3RS)-3-(4-{4-[4-({6-[4-(cyclopropylamino)-3-(propan-2-yl)-3H-imidazo[4,5-c]pyridin-6-yl]-2-oxo-1-[(1S,3S)-3-{3-oxa-6-Azabicyclo[3.1.1]heptan-6-yl}cyclobutyl]-1,2-dihydrospiro[indole-3,4′-piperidin]-1′-yl}carbonyl)-4-methylpiperidine-1-carbonyl]piperidin-1-yl}phenyl)piperidine-2,6-dione] | 0.5 to 1 | 50 to 70 |
| CC(C)n1cnc2cc(-c3ccc4c(c3)N([C@H]3C[C@@H](N5CCCCC5)C3)C(=O)C43CCN(C(=O)C4(C)CCN(C(=O)C5CCN(c6ccc(C7CCC(=O)NC7=O)cc6)CC5)CC4)CC3)nc(NC3CCOCC3)c21 (mixture of isomers) [Example 196, (3RS)-3-[4-(4-{4-methyl-4-[(6-{4-[(oxan-4-yl)amino]-3-(propan-2-yl)-3H-imidazo[4,5-c]pyridin-6-yl}-2-oxo-1-[(1S,3S)-3-(piperidin-1-yl)cyclobutyl]-1,2-dihydrospiro[indole-3,4′-piperidin]-1′-yl)carbonyl]piperidine-1-carbonyl}piperidin-1-yl)phenyl]piperidine-2,6-dione] | < 0.1 | 70 to 85 |
| CC(C)n1cnc2cc(-c3ccc4c(c3)N([C@H]3C[C@@H](N5CC6CCC(C5)O6)C3)C(=O)C43CCN(C(=O)C4(C)CCN(C(=O)C5CCN(c6ccc(C7CCC(=O)NC7=O)cc6)CC5)CC4)CC3)nc(NC3CC3)c21 (mixture of isomers) [Example 197] | 0.1 to 0.5 | 50 to 70 |
